{"source": "patent US9814754B2", "about": "“Combinations with a backbone-cyclized peptide” (POLYPHOR AG, priority 2012, dated 2017)", "test_system": "Pseudomonas aeruginosa clinical isolate PAX11045", "assay": "Murine pneumonia model, compound 1 alone (Reference 1)", "type": "in vivo", "protocol": "Efficacy in Murine Pneumonia Model Against Pseudomonas aeruginosa PAX11045 and Estimation of ED50\nThe efficacy and ED50 of the compound of formula (I) (“compound 1”) was determined against Pseudomonas aeruginosa clinical isolate PAX11045 in a pneumonia model in mice. Colony counts in the lungs and spleen were determined at 20 hours post treatment.\nFresh overnight colonies of PAX11045 from a 5% Horse Blood Agar plate were suspended in 0.9% sterile saline to approximately 10^8 CFU/ml and further diluted to approximately 5×10^7 CFU/ml. Female mice (DBA/2, outbred, 18-22 g, Charles River) were anesthetized with 0.08 ml of Zoletil (tiletamine+zolazepam) and inoculated via the nose with a pipette with 0.05 ml of the bacteria suspension containing approximately 10^6 CFU. 4 hours after inoculation, the mice were treated orally with 45 μl neurophen (20 mg ibuprofen/ml corresponding to approximately 30 mg/kg) as pain relief.\nOne vial was further 2-fold diluted with saline to 2.25, 1.125, 0.56 and 0.28 mg/ml. The mice were treated subcutaneously with 0.2 ml in the neck region with a single dose at 4 hours post infection with a dose calculation based on a mean animal weight of 20 g.\nColony counts were determined post inoculation at 4 hours (untreated mice) and 24 hours (treated and vehicle-only treated mice). Immediately after the mice were sacrificed, the lungs and spleens were collected and frozen at −20° C. After thawing, the organs were homogenized in 1 ml 0.9% saline. Each sample was then 10-fold diluted in saline and 20 μl spots were applied on blood agar plates. All agar plates were incubated 18-48 hours at 35° C. in ambient air.", "key": {"[1]": {"details": "compound 1 alone, s.c., murine lungs"}}, "note": "Square brackets hold non-standard residues; d marks the D form. dDab = NCC[C@@H](N)C(=O)O; Orn = NCCC[C@H](N)C(=O)O; Dab = NCC[C@H](N)C(=O)O", "data": [{"substance": "cyclo(TWI[Dab][Orn][dDab][Dab]W[Dab][Dab]AS[dP]P) [compound 1]", "values": [{"measurement": "Bottom level", "setting": "compound 1 alone, s.c. single dose 4 h post infection, murine lungs", "result": "−2.2", "unit": "log10 CFU/ml"}, {"measurement": "Top level", "setting": "compound 1 alone, s.c. single dose 4 h post infection, murine lungs, sigmoidal dose-response model", "result": 1.3, "unit": "log10 CFU/ml"}, {"measurement": "1 log killing dose", "setting": "[1]", "result": 8.1, "unit": "mg/kg"}, {"measurement": "2 log killing dose", "setting": "[1]", "result": 20, "unit": "mg/kg"}, {"measurement": "Emax", "setting": "[1]", "result": 3.5, "unit": "log10 CFU/ml"}, {"measurement": "Static dose", "setting": "[1]", "result": 1.55, "unit": "mg/kg"}, {"measurement": "ED50", "setting": "compound 1 alone, s.c., murine lungs, sigmoidal dose-response model (variable slope)", "result": 4.33, "unit": "mg/kg"}, {"measurement": "CFU levels compared to vehicle treatment", "setting": "compound 1 s.c. dose series, both organs (lungs and spleen), p<0.001 for the higher concentrations", "result": "concentration dependent significant reduction of the CFU levels"}]}]}
